Measured values reported in patent US8097733B2, “Pyrazole derivatives as 5-LO-inhibitors” (Pfizer Inc., priority 2007, dated 2012).
pIC50: −log10 of the molar value.

Columns and labels:
[1] = target: T1, recombinant human 5-LOX (Homo sapiens, UniProt P09917); assay: Fluorescence Intensity 5-LOX Enzyme Assay; assay type: biochemical; details: crude lysate of recombinant human 5-LOX; highest inhibitor concentration tested typically 25 μM
T1 sequence (P09917 1-674): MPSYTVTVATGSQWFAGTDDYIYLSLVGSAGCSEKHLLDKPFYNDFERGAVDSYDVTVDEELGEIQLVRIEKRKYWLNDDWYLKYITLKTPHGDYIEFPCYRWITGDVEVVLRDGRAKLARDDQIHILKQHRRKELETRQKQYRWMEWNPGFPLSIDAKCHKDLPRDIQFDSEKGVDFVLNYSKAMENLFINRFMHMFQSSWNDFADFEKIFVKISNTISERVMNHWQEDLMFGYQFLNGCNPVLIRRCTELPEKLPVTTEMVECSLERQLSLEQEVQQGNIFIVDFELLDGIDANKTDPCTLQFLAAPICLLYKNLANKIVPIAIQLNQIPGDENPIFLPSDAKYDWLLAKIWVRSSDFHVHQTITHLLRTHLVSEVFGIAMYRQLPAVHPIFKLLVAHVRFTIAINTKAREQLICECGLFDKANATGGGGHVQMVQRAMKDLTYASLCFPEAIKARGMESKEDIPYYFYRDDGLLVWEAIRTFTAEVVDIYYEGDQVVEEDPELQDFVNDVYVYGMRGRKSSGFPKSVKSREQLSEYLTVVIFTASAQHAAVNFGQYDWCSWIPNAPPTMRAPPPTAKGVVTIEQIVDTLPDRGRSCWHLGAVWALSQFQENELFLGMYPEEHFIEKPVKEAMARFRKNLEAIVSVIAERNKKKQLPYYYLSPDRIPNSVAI
From the text: Bio Data Assays for Allergic and Non Allergic Airways Diseases Fluorescence Intensity 5-LOX Enzyme Assay
The enzyme assay is based on the oxidation of the non-fluorescent compound 2′7′-dichlorodihydrofluorescein diacetate (H2DCFDA) to the fluorescent 2′,7′-dichlorofluorescein by 5-LOX in an arachidonic acid-dependent reaction. Ester cleavage of the acetate groups of the substrate H2DCFDA must occur prior to oxidation. This is achieved through use of a crude cell lysate preparation of recombinant human 5-LOX. The enzyme assay ([…]) contained 50 mM Tris (pH 7.5), 2 mM CaCl2, 2 mM EDTA, 3 μM arachidonic acid (Nu-Chek Prep; #S-1133), 10 μM ATP, 10 μM H2DCFDA (Invitrogen; #D399), inhibitor (varying concentration) and recombinant human 5-LOX enzyme (1.25 μL crude lysate per well).
Inhibitors (dissolved in DMSO) were plated into a 384-well assay plate (Corning #3654) at 1 μL followed by a 20 μL addition of a solution containing 5-LO enzyme and H2DCFDA. Enzyme and H2DCFDA were pre-incubated for 5 min to allow time for acetate group cleavage of the dye prior to addition to the assay plate. After a 10 min pre-incubation of inhibitor and enzyme/dye mix, the assay was initiated by the addition of a substrate solution containing arachidonic acid and ATP. The enzymatic reaction was run for 20 min at room temperature and terminated by the addition of 40 μL of acetonitrile. Assay plates were read in a plate reader using standard wavelengths for fluorescein. IC50s of inhibitors were calculated using a 4-parameter fit using 7 inhibitor concentrations in duplicate with 3-fold serial dilutions. Controls on each plate included no inhibitor (zero percent effect) and 25 μM C J-13610 (one hundred percent effect). The highest inhibitor concentration tested was typically 25 μM. The final DMSO concentration in the assay was 2.5%.

[2] = system: human whole blood (leukotriene and prostaglandin levels); assay: Eicosanoid production from human whole blood; assay type: cell-based; details: human whole blood stimulated with calcium ionophore A23187 and arachidonic acid; ELISA
Description: Human whole blood is collected in 10 ml heparin tubes (Vacutainer, Becton Dickenson). Collected blood is pooled and 80 μL is dispensed into each well of 384 well polypropylene plates. A PlateMate is used to add 2 μL of compound solution in DMSO to the 80 μL of blood in the polypropylene plates. The plate, with blood and compound added, is incubated at room temperature for 10 minutes. 2 μL of a calcimycin (800 ng/ml) (A23187 C-7522, Sigma) and arachidonic acid (30 μM) (NU-Chek PREP, INC. S-1133) solution in 60% ethanol is then added to the blood using a Micromultidrop. The plates are then incubated at 37° C. in a shallow water bath for 15 minutes. Plates are then spun at 800 g for 10 minutes at 4° C. Supernatant is removed and assayed by Elisa (Caymen Chemical).
Eicosanoid Production from Human Whole Blood:
Human whole blood was collected from healthy or asthmatic human donors in 10 ml heparinized tubes (Vacutainer tubes; Becton Dickenson, Franklin Lakes, N.J.). Collected blood was pooled and 80 μL was dispensed into each well of 384 well polypropylene plates using a Multi-prop™ 384-well dispenser (Titertek, Huntsville, Ala.). Varying concentrations of compounds were dissolved in DMSO then 2 μL/well was added to the blood using a PlateMate Plus™ automated pipetting station (Matrix Technologies, Hudson, N.H.). The compounds were preincubated with the blood at room temperature for 10 minutes followed by stimulation with 40 μM calcium ionophore (A23187, Sigma Chemical Co, St. Louis, Mo., Cat. # C-7522) and 30 μM arachidonic acid (S-1133, NU-Chek PREP, Inc., Elysian, MN, Cat. # S-1133) dissolved in 60% ethanol. After 15 min incubation at 37° C. in a shallow water bath, the blood was centrifuged at 8009 for 10 minutes at 4° C., the supernatants collected, and leukotriene and prostaglandin levels measured by ELISA according to the manufacturer's directions (Cayman Chemical Company, Ann Arbor, Mich.). The assay was performed at a final concentration of 2.5% DMSO.

| Structure (SMILES) | pIC50 [1] | pIC50 [2] |
| --- | --- | --- |
| Cn1nccc1-c1ccc(Sc2cccc(C3(C(N)=O)CCOCC3)c2F)cc1 [17(7), 4-(2-fluoro-3-{[4-(1-methyl-1H-pyrazol-5-yl)phenyl]thio}-phenyl)tetrahydro-2H-pyran-4-carboxamide] | 6.90 | 6.59 |
| Cn1nccc1-c1ccc(Sc2cc(F)cc(C3(C(N)=O)CCOCC3)c2F)cc1 [19(10), 4-(2,5-difluoro-3-{[4-(1-methyl-1H-pyrazol-5-yl)phenyl]-thio}phenyl)tetrahydro-2H-pyran-4-carboxamide] | 7.30 | 6.32 |
| C[C@H]1C[C@@](C#N)(c2ccc(F)c(Sc3ccc(-c4ccnn4C)cc3)c2F)CCO1 [28(2), (2S,4R)-4-(2,4-difluoro-3-(4-(1-methyl-1H-pyrazol-5-yl)phenylthio)phenyl)-2-methyl-tetrahydro-2H-pyran-4-carbonitrile] | 7.41 | 7.37 |
| NC(=O)C1(c2cccc(Sc3ccc(-c4ccnn4C4CCCC4)cc3)c2)CCOCC1 [Example 3, 4-(3-{[4-(1-cyclopentyl-1H-pyrazol-5-yl)phenyl]thio}phenyl)tetrahydro-2H-pyran-4-carboxamide] | 6.99 | 6.75 |
| NC(=O)C1(c2cccc(Sc3ccc(-c4ccnn4C4CCCCCC4)cc3)c2)CCOCC1 [Example 4, 4-(3-{[4-(1-cycloheptyl-1H-pyrazol-5-yl)phenyl]thio}phenyl)tetrahydro-2H-pyran-4-carboxamide] | 7.90 | 6.59 |
| NC(=O)C1(c2cccc(Sc3ccc(-c4ccnn4C4CCCCC4)cc3)c2)CCOCC1 [Example 5, 4-(3-{[4-(1-cyclohexyl-1H-pyrazol-5-yl)phenyl]thio}phenyl)tetrahydro-2H-pyran-4-carboxamide] | 7.80 | 6.39 |
| NC(=O)C1(c2cccc(Sc3ccc(-c4ccnn4CC4CC4)cc3)c2)CCOCC1 [Example 6, 4-[3-({4-[1-(cyclopropylmethyl)-1H-pyrazol-5-yl]phenyl}thio)phenyl]tetrahydro-2H-pyran-4-carboxamide] | 7.06 | 6.65 |
| NC(=O)C1(c2cccc(Sc3ccc(-c4ccnn4CC4CCCC4)cc3)c2)CCOCC1 [Example 7, 4-[3-({4-[1-(cyclopentylmethyl)-1H-pyrazol-5-yl]phenyl}thio)phenyl]tetrahydro-2H-pyran-4-carboxamide] | 7.41 | 7.11 |
| CCn1nccc1-c1ccc(Sc2cccc(C3(C(N)=O)CCOCC3)c2)cc1 [Example 8, 4-(3-{[4-(1-ethyl-1H-pyrazol-5-yl)phenyl]thio}phenyl)tetrahydro-2H-pyran-4-carboxamide] | 7.85 | 6.60 |
| CC(C)n1nccc1-c1ccc(Sc2cccc(C3(C(N)=O)CCOCC3)c2)cc1 [Example 9] | 7.83 | 6.68 |
| Cn1nccc1-c1ccc(Sc2cccc(C3(C(N)=O)CCOCC3)c2)c(F)c1 [Example 12, 4-(3-{[2-Fluoro-4-(1-methyl-1H-pyrazol-5-yl)phenyl]thio}phenyl)tetrahydro-2H-pyran-4-carboxamide] | 6.34 | 6.57 |
| Cn1nccc1C(=O)c1ccc([S+]([O-])c2cccc(C3(C(N)=O)CCOCC3)c2)cc1 (stereo not drawn) [Example 66, 4-[3-({4-[(1-methyl-1H-pyrazol-5-yl)carbonyl]phenyl}sulfinyl)phenyl]tetrahydro-2H-pyran-4-carboxamide] | ≤ 4.60 | – |
| C[C@H]1C[C@](C#N)(c2ccc(F)c(Sc3ccc(-c4ccnn4C)cc3)c2)CCO1 [Example 74, (2S,4S)-4-(4-fluoro-3-{[4-(1-methyl-1H-pyrazol-5-yl)phenyl]thio}phenyl)-2-methyltetrahydro-2H-pyran-4-carbonitrile] | ≤ 4.60 | – |
| C[C@@H]1C[C@](C(N)=O)(c2ccc(F)c(Sc3ccc(-c4ccnn4C)cc3)c2)CCO1 [Example 75, (2R,4S)-4-(4-fluoro-3-{[4-(1-methyl-1H-pyrazol-5-yl)phenyl]thio}phenyl)-2-methyltetrahydro-2H-pyran-4-carboxamide] | 4.91 | – |
| C[C@H]1C[C@](C(N)=O)(c2ccc(F)c(Sc3ccc(-c4ccnn4C)cc3)c2)CCO1 [Example 77, (2S,4S)-4-(4-fluoro-3-{[4-(1-methyl-1H-pyrazol-5-yl)phenyl]thio}phenyl)-2-methyltetrahydro-2H-pyran-4-carboxamide] | 5.20 | – |
| C[C@H]1C[C@](C(N)=O)(c2cccc(Sc3ccc(-c4ccnn4C)cc3)c2F)CCO1 [Example 79, (2S,4S)-4-(2-fluoro-3-{[4-(1-methyl-1H-pyrazol-5-yl)phenyl]thio}phenyl)-2-methyltetrahydro-2H-pyran-4-carboxamide] | 5.48 | – |
| Cn1nccc1-c1ccc(Sc2cccc(C3(C(N)=O)CCOC(C)(C)C3)c2)cc1 (stereo not drawn) [Example 80, 2,2-dimethyl-4-(3-{[4-(1-methyl-1H-pyrazol-5-yl)phenyl]thio}phenyl)tetrahydro-2H-pyran-4-carboxamide] | 5.45 | – |
| C[C@H]1C[C@](C(N)=O)(c2cccc(Sc3ccc(-c4ccnn4C)cc3)c2)CCO1 [Example 81, (2S,4S)-2-methyl-4-(3-{[4-(1-methyl-1H-pyrazol-5-yl)phenyl]thio}phenyl)tetrahydro-2H-pyran-4-carboxamide] | 5.12 | – |
| C[C@@H]1C[C@@](C#N)(c2cccc(Sc3ccc(-c4ccnn4C)cc3)c2)CCO1 [Example 83, (2R,4R)-2-methyl-4-(3-{[4-(1-methyl-1H-pyrazol-5-yl)phenyl]thio}phenyl)tetrahydro-2H-pyran-4-carbonitrile] | 4.99 | – |
| C[C@H]1C[C@](C#N)(c2cccc(Sc3ccc(-c4ccnn4C)cc3)c2)CCO1 [Example 84, (2S,4S)-2-methyl-4-(3-{[4-(1-methyl-1H-pyrazol-5-yl)phenyl]thio}phenyl)tetrahydro-2H-pyran-4-carbonitrile] | 5.65 | – |
| Cn1nccc1C(=O)c1ccc(Sc2cccc(C3(C(N)=O)CCOCC3)c2)c(C#N)c1 [Example 85, 4-[3-({2-cyano-4-[(1-methyl-1H-pyrazol-5-yl)carbonyl]phenyl}thio)phenyl]tetrahydro-2H-pyran-4-carboxamide] | 5.56 | – |
| Cn1nccc1-c1ccc([S+]([O-])c2cccc(C3(C(N)=O)CCOCC3)c2)cc1Cl (stereo not drawn) [Example 89, 4-(3-{[3-chloro-4-(1-methyl-1H-pyrazol-5-yl)phenyl]sulfinyl}phenyl)tetrahydro-2H-pyran-4-carboxamide] | ≤ 4.60 | – |
